Each compound was assayed against Proto-oncogene tyrosine-protein kinase Src (Homo sapiens, UniProt P12931) (assay: Binding affinity against Src SH2 domain in competitive fluorescence polarization assay).
Chain of Proto-oncogene tyrosine-protein kinase Src (P12931 2-536 limits assumed): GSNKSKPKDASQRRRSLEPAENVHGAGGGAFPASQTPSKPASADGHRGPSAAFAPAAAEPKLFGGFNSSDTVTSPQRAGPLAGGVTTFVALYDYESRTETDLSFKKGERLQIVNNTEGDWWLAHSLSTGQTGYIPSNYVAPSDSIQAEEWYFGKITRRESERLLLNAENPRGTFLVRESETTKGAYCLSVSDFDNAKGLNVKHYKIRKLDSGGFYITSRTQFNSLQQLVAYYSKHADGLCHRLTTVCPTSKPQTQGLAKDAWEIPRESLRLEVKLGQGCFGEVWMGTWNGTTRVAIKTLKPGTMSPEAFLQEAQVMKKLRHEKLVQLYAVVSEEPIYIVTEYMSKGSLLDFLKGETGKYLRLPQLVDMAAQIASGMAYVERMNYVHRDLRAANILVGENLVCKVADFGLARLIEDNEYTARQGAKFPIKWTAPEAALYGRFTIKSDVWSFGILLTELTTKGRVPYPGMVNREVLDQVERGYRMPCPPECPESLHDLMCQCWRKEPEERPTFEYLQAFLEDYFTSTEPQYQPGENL

First: CC(=O)N[C@@H](Cc1ccc(OP(=O)(O)O)cc1)C(=O)N[C@H]1CCCCc2cc(OCC3CCCCC3)c(C(N)=O)cc21
Second: CC(=O)N[C@@H](Cc1ccc(OP(=O)(O)O)cc1)C(=O)N[C@@H]1CCCCc2cc(OCC3CCCCC3)c(C(N)=O)cc21
The IC50 of the first is 81-fold lower: 100 nM for the first, 8100 nM for the second.

Compared with `CC(=O)N[C@@H](Cc1ccc(OP(=O)(O)O)cc1)C(=O)N[C@H]1CCCOc2cc(OCC3CCCCC3)c(C(N)=O)cc21`, `CC(=O)N[C@@H](Cc1ccc(OP(=O)(O)O)cc1)C(=O)N[C@@H]1CCCOc2cc(OCC3CCCCC3)c(C(N)=O)cc21` is 8-fold higher in IC50: 200 nM for the first, 1600 nM for the second.

With `CC[C@H](C)[C@H](NC(=O)[C@H](CCC(=O)O)NC(=O)[C@H](CCC(=O)O)NC(=O)[C@@H](N)Cc1ccc(OP(=O)(O)O)cc1)C(=O)O` the IC50 was 5600 nM.

From ChEMBL document CHEMBL1133687, “Structure-based design of novel bicyclic nonpeptide inhibitors for the src SH2 domain” (J Med Chem, 2000)
